Drawing on paper PMC12472749, “Balsalazide-Derived Heterotriaryls as Sirtuin 5 Inhibitors: A Case Study of a Reversible Covalent Inhibition Strategy” (Molecules, 2025), this text covers IC50 for 19 compounds.

Each structure is given as a SMILES string. Several values for one entry are separate records, joined by “and”; a condition that tells them apart may be missing. Identical values can stand only once.

One assay relates to sirtuin 5.
Experiment: not given
The conditions noted are these: Figure 1, high-throughput screening hits; read-out: IC50 (published sirtuin 5 inhibitor); cited from earlier work.
As for `O=C1c2c(O)cccc2Cc2cccc(O)c21` [Anthralin, anthralin], the IC50 is 0.1 µM.

As for `O=C(O)CCNC(=O)c1ccc(/N=N/c2ccc(O)c(C(=O)O)c2)cc1` [Balsalazide, balsalazide], the half-inhibitory concentration (IC50) was 3.9 µM.

Consider `C=C1c2cccc(O)c2C(=O)C2=C(O)[C@]3(O)C(=O)C(C(N)=O)=C(O)[C@@H](N(C)C)[C@@H]3[C@@H](O)[C@H]12` [Methacycline, methacycline], for which the IC50 was 3.6 µM.

The assay is the same for the next values; noted with them: Figure 1; read-out: IC50 (published sirtuin 5 inhibitor); cited from earlier work.
As to `O=c1[nH]c(=S)[nH]c(-c2ccccc2)c1Cc1c(O)ccc2ccccc12` [Cambinol, cambinol], the IC50 is 43 µM.

`O=C1Nc2ccc(I)cc2/C1=C/c1cc(Br)c(O)c(Br)c1` [GW5074]: the IC50 is 20 µM.

Regarding `N#C/C(=C\c1ccc(-c2ccc(C(=O)O)cc2)o1)C(=O)Nc1ccc(C#N)c(F)c1` [Liu compound 37], the IC50 is 5.6 µM.

With `C=CCN1C(=O)/C(=C\c2ccc(-c3cccc(Cl)c3Cl)o2)C(=O)NC1=S` [Maurer compound 2], the IC50 is 2.3 µM.

The same assay, now with this note: published values of the lead structures; read-out: IC50 (published values of lead structures); cited from earlier work.
With `O=C(O)CCNC(=O)c1ccc(-c2cn(-c3ccc(O)c(C(=O)O)c3)nn2)cc1` [CG_220], the IC50 was 7 µM and 7.4 µM.

`O=C(O)CCNC(=O)c1ccc(-c2cc(-c3ccc(O)c(C(=O)O)c3)no2)cc1` [CG_209]: the IC50 is 12 µM.

A further assay concerns the target T1, hSirt5 (Homo sapiens, UniProt Q9NXA8).
T1 construct: comprised amino acids 37–310 (C-terminal region); His-tag (N); purchased Reaction Biology Corporation (Malvern, PA, USA); host or cells: Escherichia coli
T1 sequence (Q9NXA8 37-310): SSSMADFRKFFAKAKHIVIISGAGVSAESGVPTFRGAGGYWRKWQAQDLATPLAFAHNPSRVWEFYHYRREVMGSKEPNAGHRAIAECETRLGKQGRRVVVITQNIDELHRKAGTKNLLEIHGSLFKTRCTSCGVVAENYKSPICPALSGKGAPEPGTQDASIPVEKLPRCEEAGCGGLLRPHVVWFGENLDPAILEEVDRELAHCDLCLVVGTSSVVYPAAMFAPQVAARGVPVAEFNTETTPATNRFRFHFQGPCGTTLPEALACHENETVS
Description: fluorescence-based sirtuin 5 assay (Reaction Biology) with substrate Ac-Lys-succ-AMC and NAD+. The class given is biochemical. The note with it: recombinant sirtuin 5 aa 37-310, 50 µM Ac-Lys-succ-AMC, 10-dose 3-fold dilution, mean of three measurements; read-out: IC50 (hSirt5) [µM] ± SD. On the procedure: The synthesized cyclic boronate, cyanomethyl and formylmethyl derivatives of CG_209 and CG_220 were tested for their inhibitory effects against sirtuin 5 using a fluorescence-based assay utilizing a 7-amino-4-methyl coumarin-based succinylated lysine as its substrate. The IC50 values of these compounds were calculated as a mean of three measurements (Table 2). […] Significant loss in the potency of the boronates 51–54 could be observed compared to their lead structures CG_209 and CG_220.
The inhibitory activities of the synthesized target compounds were determined by Reaction Biology Corporation (Malvern, PA, USA) using a fluorescence-based assay. The sirtuin 5 enzyme utilized in this assay was produced in-house by Reaction Biology. The enzyme construct (accession number: NM_012241) comprised amino acids 37–310 (C-terminal region), carried an N-terminal His-tag and was expressed in Escherichia coli. The recombinant protein was purified to >95% purity, as confirmed by SDS-PAGE, and supplied in a solution containing 50 mM Tris-HCl (pH 8.0), 137 mM NaCl, 2.7 mM KCl, 1 mM MgCl2, 1 mg/mL BSA, and 1% DMSO with a protein concentration of 19 nM. Test compounds were prepared at a concentration of 10 mM in DMSO and incubated with 5 µL sirtuin 5 in the assay buffer per well at 30 °C for 10 min in a concentration range between 5 nM and 0.1 mM. 5 µL assay buffer without sirtuin 5 were used for control wells. The deacylation reaction was initiated by the addition of 5 µL substrate mixture comprising 50 µM fluorogenic substrate Ac-Lys-succ-AMC and the co-factor NAD^+. After a 2 h incubation at 30 °C, the reaction was terminated by adding 10 µL protease-based developer with 4 mM nicotinamide, which cleaves 7-amino-4-methylcoumarin to yield a fluorescent signal. Fluorescence was measured after an additional 1 h incubation at 30 °C, with excitation/emission wavelengths of 360/460 nm with EnVision® Plate Reader (Revvity, Waltham, MA, USA). To standardize results, a no-inhibitor control representing 100% enzyme activity was included in all assays. IC50 values for sirtuin 5 inhibition were determined in triplicate using a 10-dose, 3-fold serial dilution series. For each replicate, individual IC50 values were calculated by fitting sigmoidal dose–response curves using Prism 8.0.2 software (GraphPad Software, Boston, MA, USA). The final IC50 values are reported as the mean ± standard deviation of the triplicate measurements.
Consider `O=C(O)CCNC(=O)c1ccc(-c2cn(-c3ccc(O)c(C(=O)O)c3)nn2)cc1` [CG_220], for which the IC50 was found to be 9 ± 2 µM.

For `O=CCC(CC(=O)O)NC(=O)c1ccc(-c2cn(-c3ccc(O)c(C(=O)O)c3)nn2)cc1` (stereo not drawn) [Compound 64, 5-(4-(4-((1-Carboxy-4-oxobutan-2-yl)carbamoyl)phenyl)-1H-1,2,3-triazol-1-yl)-2-hydroxybenzoic acid], the IC50 worked out at 60 ± 15 µM.

As for `N#CC[C@H](CC(=O)O)NC(=O)c1ccc(-c2cn(-c3ccc(O)c(C(=O)O)c3)nn2)cc1` [Compound 49, (R)-5-(4-(4-((1-Carboxy-3-cyanopropan-2-yl)carbamoyl)phenyl)-1H-1,2,3-triazol-1-yl)-2-hydroxybenzoic acid], the IC50 worked out at 35 ± 6 µM.

For the compound `N#CC[C@@H](CC(=O)O)NC(=O)c1ccc(-c2cn(-c3ccc(O)c(C(=O)O)c3)nn2)cc1` [Compound 50, (S)-5-(4-(4-((1-Carboxy-3-cyanopropan-2-yl)carbamoyl)phenyl)-1H-1,2,3-triazol-1-yl)-2-hydroxybenzoic acid], the IC50 is 27 ± 9 µM.

Turning to `CC1(C)OC(=O)c2cc(-c3cc(-c4ccc(C5=N[C@H](CC(=O)O)CB(O)O5)cc4)on3)ccc2O1` [Compound 52, (S)-2-(6-(4-(3-(2,2-Dimethyl-4-oxo-4H-benzo[d][1,3]dioxin-6-yl)isoxazol-5-yl)phenyl)-2-hydroxy-3,4-dihydro-2H-1,5,2-oxazaborinin-4-yl)acetic acid], the IC50 is 139 ± 18 µM.

As to `CC1(C)OC(=O)c2cc(-n3cc(-c4ccc(C5=N[C@H](CC(=O)O)CB(O)O5)cc4)nn3)ccc2O1` [Compound 54, (S)-2-(6-(4-(1-(2,2-Dimethyl-4-oxo-4H-benzo[d][1,3]dioxin-6-yl)-1H-1,2,3-triazol-4-yl)phenyl)-2-hydroxy-3,4-dihydro-2H-1,5,2-oxazaborinin-4-yl)acetic acid], the IC50 is 61 ± 9 µM.

With `N#CC[C@@H](CC(=O)O)NC(=O)c1ccc(-c2cc(-c3ccc(O)c(C(=O)O)c3)no2)cc1` [Compound 48, (S)-5-(5-(4-((1-Carboxy-3-cyanopropan-2-yl)carbamoyl)phenyl)isoxazol-3-yl)-2-hydroxybenzoic acid], the IC50 was found to be 65 ± 15 µM.

In the case of `CC1(C)OC(=O)c2cc(-c3cc(-c4ccc(C5=N[C@@H](CC(=O)O)CB(O)O5)cc4)on3)ccc2O1` [Compound 51, (R)-2-(6-(4-(3-(2,2-Dimethyl-4-oxo-4H-benzo[d][1,3]dioxin-6-yl)isoxazol-5-yl)phenyl)-2-hydroxy-3,4-dihydro-2H-1,5,2-oxazaborinin-4-yl)acetic acid], the IC50 came to 203 ± 50 µM.

For `O=CCC(CC(=O)O)NC(=O)c1ccc(-c2cc(-c3ccc(O)c(C(=O)O)c3)no2)cc1` (stereo not drawn) [Compound 61, 5-(5-(4-((1-Carboxy-4-oxobutan-2-yl)carbamoyl)phenyl)isoxazol-3-yl)-2-hydroxybenzoic acid], the IC50 is 82 ± 3 µM.

Consider `N#CC[C@H](CC(=O)O)NC(=O)c1ccc(-c2cc(-c3ccc(O)c(C(=O)O)c3)no2)cc1` [Compound 47, (R)-5-(5-(4-((1-Carboxy-3-cyanopropan-2-yl)carbamoyl)phenyl)isoxazol-3-yl)-2-hydroxybenzoic acid], for which the IC50 was 97 ± 22 µM.

For the compound `CC1(C)OC(=O)c2cc(-n3cc(-c4ccc(C5=N[C@@H](CC(=O)O)CB(O)O5)cc4)nn3)ccc2O1` [Compound 53, (R)-2-(6-(4-(1-(2,2-Dimethyl-4-oxo-4H-benzo[d][1,3]dioxin-6-yl)-1H-1,2,3-triazol-4-yl)phenyl)-2-hydroxy-3,4-dihydro-2H-1,5,2-oxazaborinin-4-yl)acetic acid], the IC50 came out at 137 ± 63 µM.

For the compound `O=C(O)CCNC(=O)c1ccc(-c2cc(-c3ccc(O)c(C(=O)O)c3)no2)cc1` [CG_209], the IC50 worked out at 11 ± 1 µM.
